Reference: US7750017B2, “Heterocycles” (Bayer Schering Pharma Aktiengesellschaft, priority 2004, dated 2010)
Structures can show the parent of a compound that is named as a salt.

Legend:
[1] = test system: BT474 [human breast carcinoma, overexpressing HER2 (ErbB2)]; assay: In vitro tumor cell proliferation assay (Cell Titer-Glo luminescent cell viability), BT474 cells; assay type: cell-based; conditions: BT-474, 72 h, 72 hours of drug exposure, Cell Titer-Glo readout, read-out: IC50, anti-proliferative activity in BT474 cells
[2] = test system: A431 cells [human epidermoid carcinoma, overexpressing HER1 (EGFR, ErbB1)]; assay: In vitro tumor cell proliferation assay (Cell Titer-Glo luminescent cell viability), A431 cells; assay type: cell-based; conditions: A-431, 72 h, 72 hours of drug exposure, Cell Titer-Glo readout, read-out: IC50, anti-proliferative activity in A431 cells

| IC50 [1] | IC50 [2] | Structure (SMILES) |
| --- | --- | --- |
| ≤ 500 nM | ≤ 5 µM | OCC(O)c1ccc2c(c1)sc1ncnc(Nc3ccc(OCc4cccc(F)c4)c(Cl)c3)c12 (racemic) [Example 25, 1-[4-({3-chloro-4-[(3-fluorobenzyl)oxy]phenyl}amino) [1]benzothieno[2,3-d]pyrimidin-7-yl]ethane-1,2-diol] |
| ≤ 5000 nM | ≤ 50 µM | CCN1CCN(C(=O)[C@@H](O)[C@H](O)c2ccc3c(c2)sc2ncnc(Nc4ccc(OCc5cccc(F)c5)c(Cl)c4)c23)CC1 [Example 58, (1R,2S)-1-[4-({3-chloro-4-[(3-fluorobenzyl)oxy]phenyl}amino)[1]benzothieno[2,3-d]pyrimidin-7-yl]-3-(4-ethylpiperazin-1-yl)-3-oxopropane-1,2-diol] |
| ≤ 500 nM | ≤ 50 µM | OC[C@H](O)c1ccc2c(c1)sc1ncnc(Nc3ccc(OCc4ccccn4)c(Cl)c3)c12 [Example 75, (1R)-1-(4-{[3-chloro-4-(pyridin-2-ylmethoxy)phenyl]amino}[1]benzothieno[2,3-d]pyrimidin-7-yl)ethane-1,2-diol] |
| ≤ 5000 nM | ≤ 50 µM | O=C(O)/C=C/c1ccc2c(c1)sc1ncnc(Nc3ccc(OCc4cccc(F)c4)c(Cl)c3)c12 [Example 48, (2E)-3-[4-({3-chloro-4-[(3-fluorobenzyl)oxy]phenyl}amino)[1]benzothieno[2,3-d]pyrimidin-7-yl]acrylic acid] |
| ≤ 5000 nM | ≤ 50 µM | Fc1cccc(COc2ccc(Nc3ncnc4sc5cc(Br)ccc5c34)cc2Cl)c1 [Example 13, 7-bromo-N-{3-chloro-4-[(3-fluorobenzyl)oxy]phenyl}[1]benzothieno[2,3-d]pyrimidin-4-amine] |
| ≤ 5000 nM | ≤ 50 µM | Clc1cc(Nc2ncnc3sc4cc(Br)ccc4c23)ccc1OCc1ccccn1 [Example 71, 7-bromo-N-[3-chloro-4-(pyridin-2-ylmethoxy)phenyl][1]benzothieno[2,3-d]pyrimidin-4-amine] |
| ≤ 500 nM | ≤ 50 µM | C=Cc1ccc2c(c1)sc1ncnc(Nc3ccc4c(cnn4Cc4cccc(F)c4)c3)c12 [Example 114, N-[1-(3-fluorobenzyl)-1H-indazol-5-yl]-7-vinyl[1]benzothieno[2,3-d] pyrimidin-4-amine] |
| ≤ 500 nM | ≤ 5 µM | OC[C@@H](O)[C@H](O)c1ccc2c(c1)sc1ncnc(Nc3ccc(OCc4cccc(F)c4)c(Cl)c3)c12 [Example 64, (1R,2R)-1-[4-({3-chloro-4-[(3-fluorobenzyl)oxy]phenyl}amino)[1]benzothieno[2,3-d]pyrimidin-7-yl]propane-1,2,3-triol] |
| ≤ 500 nM | ≤ 50 µM | OCC(O)c1ccc2c(c1)sc1ncnc(Nc3ccc4c(cnn4Cc4ccccn4)c3)c12 (stereo not shown) [Example 131, 1-(4-{[1-(pyridin-2-ylmethyl)-1H-indazol-5-yl]amino}[1]benzothieno [2,3-d]pyrimidin-7-yl)ethane-1,2-diol] |
| ≤ 5000 nM | ≤ 50 µM | COCCCNc1ccc2c(c1)sc1ncnc(Nc3ccc(OCc4ccccn4)c(Cl)c3)c12 [Example 79, N4-[3-chloro-4-(pyridin-2-ylmethoxy)phenyl]-N7-(3-methoxypropyl)[1]benzothieno [2,3-d]pyrimidine-4,7-diamine trifluoroacetate] |
| ≤ 500 nM | ≤ 5 µM | OC[C@H](O)c1ccc2c(c1)sc1ncnc(Nc3ccc(OCc4cccc(F)c4)c(Cl)c3)c12 [Example 27, (1R)-1-[4-({3-chloro-4-[(3-fluorobenzyl)oxy]phenyl}amino) [1]benzothieno[2,3-d]pyrimidin-7-yl]ethane-1,2-diol] |
| ≤ 500 nM | ≤ 5 µM | CN1CCN(CCc2ccc3c(c2)sc2ncnc(Nc4ccc(OCc5cccc(F)c5)c(Cl)c4)c23)CC1 [Example 21, N-{3-chloro-4-[(3-fluorobenzyl)oxy]phenyl}-7-[2-(4-methylpiperazin-1-yl)ethyl][1] benzothieno[2,3-d]pyrimidin-4-amine] |
| ≤ 500 nM | ≤ 5 µM | CN1CCN(c2ccc3c(c2)sc2ncnc(Nc4ccc(OCc5ccccn5)c(Cl)c4)c23)CC1 [Example 77, N-[3-chloro-4-(pyridin-2-ylmethoxy)phenyl]-7-(4-methylpiperazin-1-yl)[1]benzothieno [2,3-d]pyrimidin-4-amine trifluoroacetate] |
| ≤ 500 nM | ≤ 50 µM | O=S1(=O)CCN(CCc2ccc3c(c2)sc2ncnc(Nc4ccc(OCc5cccc(F)c5)c(Cl)c4)c23)CC1 [Example 18, N-{3-chloro-4-[(3-fluorobenzyl)oxy]phenyl}-7-[2-(1,1-dioxidothiomorpholin-4-yl)ethyl][1]benzothieno[2,3-d] pyrimidin-4-amine] |
| ≤ 500 nM | ≤ 5 µM | CCNCCc1ccc2c(c1)sc1ncnc(Nc3ccc(OCc4ccccn4)c(Cl)c3)c12 [Example 90, N-[3-chloro-4-(pyridin-2-ylmethoxy)phenyl]-7-[2-(ethylamino)ethyl][1]benzothieno [2,3-d]pyrimidin-4-amine trifluoroacetate] |
| ≤ 500 nM | ≤ 5 µM | O=C(Cc1ccc2c(c1)sc1ncnc(Nc3ccc(OCc4cccc(F)c4)c(Cl)c3)c12)N1CCOCC1 [Example 28, 2-{4-[3-Chloro-4-(3-fluoro-benzyloxy)-phenylamino]-benzo[4,5]thieno[2,3-]pyrimidin-7-yl}-1-morpholin-4-yl-ethanone] |
| ≤ 5000 nM | ≤ 50 µM | COCCN(C)C(=O)Cc1ccc2c(c1)sc1ncnc(Nc3ccc(OCc4ccccn4)c(Cl)c3)c12 [Example 103, 2-(4-{[3-chloro-4-(pyridin-2-ylmethoxy)phenyl]amino}[1]benzothieno[2,3-d]pyrimidin-7-yl)-N-(2-methoxyethyl)-N-methylacetamide] |
| ≤ 5000 nM | ≤ 50 µM | [O-][S+]1CCN(CCc2ccc3c(c2)sc2ncnc(Nc4ccc(OCc5cccc(F)c5)c(Cl)c4)c23)CC1 [Example 19, N-{3-chloro-4-[(3-fluorobenzyl)oxy]phenyl}-7-[2-(1-oxidothiomorpholin-4-yl)ethyl][1] benzothieno[2,3-d]pyrimidin-4-amine] |
| ≤ 500 nM | ≤ 5 µM | OCCN(CCO)CCc1ccc2c(c1)sc1ncnc(Nc3ccc(OCc4cccc(F)c4)c(Cl)c3)c12 [Example 8, 2,2'-({2-[4-({3-chloro-4-[(3-fluorobenzyl)oxy]phenyl}amino)[1]benzothieno[2,3-d]pyrimidin-7-yl]ethyl}imino)diethanol] |
| ≤ 500 nM | ≤ 5 µM | CS(=O)(=O)CCNC(=O)CCc1ccc2c(c1)sc1ncnc(Nc3ccc(OCc4cccc(F)c4)c(Cl)c3)c12 [Example 69, 3-[4-({3-chloro-4-[(3-fluorobenzyl)oxy]phenyl}amino)[1]benzothieno[2,3-d]pyrimidin-7-yl]-N-[2-(methylsulfonyl)ethyl] propanamide] |
| ≤ 500 nM | ≤ 5 µM | Fc1cccc(COc2ccc(Nc3ncnc4sc5cc(CCN6CCCC6)ccc5c34)cc2Cl)c1 [Example 11, N-{3-chloro-4-[(3-fluorobenzyl)oxy]phenyl}-7-(2-pyrrolidin-1-ylethyl)[1] benzothieno[2,3-d]pyrimidin-4-amine] |
| ≤ 500 nM | ≤ 50 µM | O=C(Cc1ccc2c(c1)sc1ncnc(Nc3ccc(OCc4ccccn4)c(Cl)c3)c12)NCCN1CCOCC1 [Example 97, 2-(4-{[3-chloro-4-(pyridin-2-ylmethoxy)phenyl]amino}[1]benzothieno[2,3-d]pyrimidin-7-yl)-N-(2-morpholin-4-ylethyl) acetamide] |
| ≤ 5000 nM | ≤ 50 µM | CN(C)[C@H]1CCN(C(=O)C(O)C(O)c2ccc3c(c2)sc2ncnc(Nc4ccc(OCc5cccc(F)c5)c(Cl)c4)c23)C1 (stereo partly drawn) [Example 59, 1-[4-({3-chloro-4-[(3-fluorobenzyl)oxy]phenyl}amino) [1]benzothieno[2,3-d]pyrimidin-7-yl]-3-[(3S)-3-(dimethylamino)pyrrolidin-1-yl]-3-oxopropane-1,2-diol] |
| ≤ 500 nM | ≤ 5 µM | Fc1cccc(Cn2ncc3cc(Nc4ncnc5sc6cc(N7CCNCC7)ccc6c45)ccc32)c1 [Example 119, N-[1-(3-fluorobenzyl)-1H-indazol-5-yl]-7-piperazin-1-yl[1]benzothieno [2,3-d]pyrimidin-4-amine] |
| ≤ 5000 nM | ≤ 5 µM | CN1CCN(C(=O)/C=C/c2ccc3c(c2)sc2ncnc(Nc4ccc(OCc5cccc(F)c5)c(Cl)c4)c23)CC1 [Example 51, N-{3-chloro-4-[(3-fluorobenzyl)oxy]phenyl}-7-[(1E)-3-(4-methylpiperazin-1-yl)-3-oxoprop-1-en-1-yl][1]benzothieno [2,3-d]pyrimidin-4-amine] |
| ≤ 500 nM | ≤ 5 µM | OC[C@H](O)[C@@H](O)c1ccc2c(c1)sc1ncnc(Nc3ccc(OCc4cccc(F)c4)c(Cl)c3)c12 [Example 63, (1S,2S)-1-[4-({3-chloro-4-[(3-fluorobenzyl)oxy]phenyl}amino) [1]benzothieno[2,3-d]pyrimidin-7-yl]propane-1,2,3-triol] |
| ≤ 5000 nM | ≤ 50 µM | CCN1CCN(C(=O)CCc2ccc3c(c2)sc2ncnc(Nc4ccc(OCc5cccc(F)c5)c(Cl)c4)c23)CC1 [Example 67, N-{3-chloro-4-[(3-fluorobenzyl)oxy]phenyl}-7-[3-(4-ethylpiperazin-1-yl)-3-oxopropyl][1]benzothieno[2,3-d] pyrimidin-4-amine] |
| ≤ 500 nM | ≤ 5 µM | COC1CCN(CCc2ccc3c(c2)sc2ncnc(Nc4ccc(OCc5cccc(F)c5)c(Cl)c4)c23)C1 (stereo not shown) [Example 20, N-{3-chloro-4-[(3-fluorobenzyl)oxy]phenyl}-7-[2-(3-methoxypyrrolidin-1-yl)ethyl][1] benzothieno[2,3-d]pyrimidin-4-amine] |
| ≤ 500 nM | ≤ 50 µM | CS(=O)(=O)CCNCCc1ccc2c(c1)sc1ncnc(Nc3ccc(OCc4cccc(F)c4)c(Cl)c3)c12 [Example 4, N-{3-chloro-4-[(3-fluorobenzyl)oxy]phenyl}-7-(2-{[2-(methylsulfonyl)ethyl]amino}ethyl)[1]benzothieno[2,3-d] pyrimidin-4-amine] |
